Assay results reported in patent US11214835B1, “Methods and compositions for diagnosis and management of neurodegerative diseases” (UNIVERSITY OF SOUTH FLORIDA, priority 2017, dated 2022).

Tested on: GAS5 lncRNA
Test: γ-AApeptide OBOC combinatorial library screen with fluorescein tagged GAS5 oligonucleotide, hits validated in vitro
Assay type: binding
Conditions: fluorescein tagged GAS5 oligonucleotide probe, tRNA as control
Description: The interaction between UPF1 and GAS5 was disrupted using a γ-AApeptide based one-bead-one-compound (OBOC) combinatorial library (Wu H, Li Y, Bai G, Niu Y, Qiao Q, Tipton J D, Cao C, Cai J. gamma-AApeptide-based small-molecule ligands that inhibit Abeta aggregation. Chemical communications. 2014; 50(40):5206-8. doi: 10.1039/c3cc46685j. PubMed PMID: 24158240). The γ-AApeptide is a peptidomimetic with side chains for chemical diversity and are resistant to proteolytic cleavage. To screen the compound library, a probe that contained a fluorescein tagged oligonucleotide was synthesized. The probe spanned 30 nucleotides on either side of the UAA sequences on GAS5 (FIG. 13) The fluorescein was attached to the 5′end (beginning of oligonucleotide probe sequence). The nucleotide sequence within the GAS5 IncRNA that the oligonucleotide probe binds to can be about 100% identical to […] (SEQ ID NO: 4), which is nucleotides 541 to 651 of SEQ ID NO: 1. The underlined regions indicate the UAA that is the target regions. As such, the oligonucleotide probe was designed to flank both sides of these target regions.
The length of oligonucleotide was required to maintain stem loop structure to specifically bind to GAS5. Further, we modeled the oligonucleotide (RNAfold software) to evaluate its folding and verified absence of any unwanted secondary structures. The backbone was modified by 2′-MOE (2′-O-methoxyethylribose), which protects it from degradation and a fluoroscein tag was attached to the 5′end to aid in screening. The oligonucleotide probe was used to screen 160,000 molecules in the combinatorial library using tRNA as control (as tRNA has similar stem loop secondary structures). […] The compound having a structure according to Formula 3 was determined to have a chemical formula of C68H92N10O9S, a mass of about 1224.6769, and a molecular weight of 1225.6050. The compound having a structure according to Formula 14 was determined to have a chemical formula of C63H85N9O13S, a mass of about 1207.5988, and a molecular weight of 1208.4830. […]

CC(C)C[C@H]1CN(C(=O)CC2CC2)CC(=O)N[C@@H](CCCCN)CN(C(=O)CCc2ccccc2)CC(=O)N[C@@H](Cc2ccccc2)CN(CC(N)=O)C(=O)CCSCc2ccc(cc2)C(=O)N[C@@H](Cc2ccccc2)CN(C(=O)CC2CC2)CC(=O)N1 [Formula G5-1397]
ability to bind GAS5 (identified and validated from library screen): able to bind GAS5

NCCCC[C@H]1CN(C(=O)CCc2ccccc2)CC(=O)N[C@@H](CCC(=O)O)CN(CC(N)=O)C(=O)CCSCc2ccc(cc2)C(=O)N[C@@H](CCC(=O)O)CN(C(=O)CCC(=O)O)CC(=O)N[C@@H](CCCCN)CN(C(=O)CCCN)CC(=O)N1 [NPG567]
ability to bind GAS5 (identified and validated from library screen): can bind GAS5
